In ChEMBL document CHEMBL1201862, “PubChem BioAssay data set” (2004):
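All cell lines were grown in 96-well plates and treated with compound for 48 hours. Abbreviation: GI50, concentration required for 50% inhibition of growth.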 Activity calls are given as the source filed them. No stated cut-off is given here; in the data, active = GI50 up to about 1.1 µM and inactive = higher.

What was measured:
Assay in all cases: inhibition of tumour cell growth, NCI panel, 48 h
ACHN = tested on: ACHN
CCRF-CEM = tested on: CCRF-CEM
COLO 205 = tested on: COLO 205
HOP-92 = tested on: HOP-92
LOX IMVI = tested on: LOX IMVI
Malme-3M = tested on: Malme-3M
NCI-H460 = tested on: NCI-H460
NCI-H522 = tested on: NCI-H522
OVCAR-3 = tested on: OVCAR-3
RPMI-8226 = tested on: RPMI-8226
SF-268 = tested on: SF-268
SF-295 = tested on: SF-295
SK-MEL-2 = tested on: SK-MEL-2
SK-MEL-5 = tested on: SK-MEL-5
SN12C = tested on: SN12C
SNB-19 = tested on: SNB-19
SNB-75 = tested on: SNB-75
UACC-257 = tested on: UACC-257
HCT-116 = tested on: HCT-116

Structure (SMILES)	GI50 (ACHN)	GI50 (CCRF-CEM)	GI50 (COLO 205)	GI50 (HOP-92)	GI50 (LOX IMVI)	GI50 (Malme-3M)	GI50 (NCI-H460)	GI50 (NCI-H522)	GI50 (OVCAR-3)	GI50 (RPMI-8226)	GI50 (SF-268)	GI50 (SF-295)	GI50 (SK-MEL-2)	GI50 (SK-MEL-5)	GI50 (SN12C)	GI50 (SNB-19)	GI50 (SNB-75)	GI50 (UACC-257)	GI50 (HCT-116)
O=C(CC1(O)C(=O)Nc2ccc(Br)cc21)c1cccc([N+](=O)[O-])c1 (centres undefined)	60.5 µM (inactive)	24.1 µM (inactive)	> 100 µM (inactive)	20.8 µM (inactive)	32.4 µM (inactive)	> 100 µM (inactive)	> 100 µM (inactive)	22.2 µM (inactive)	38.7 µM (inactive)	18.3 µM (inactive)	39 µM (inactive)	59 µM (inactive)	54.7 µM (inactive)	> 10 µM (inactive)	> 100 µM (inactive)	61.5 µM (inactive)	26.7 µM (inactive)	27.9 µM (inactive)	
O=c1ccc(=O)c2c(=O)c3ccccc3c(=O)c1=2	60.3 µM (inactive)	33 µM (inactive)	99.3 µM (inactive)	> 100 µM (inactive)	42.6 µM (inactive)	26.5 µM (inactive)	29.3 µM (inactive)	29.8 µM (inactive)	21.2 µM (inactive)	27.5 µM (inactive)	35.6 µM (inactive)	34.4 µM (inactive)	20.8 µM (inactive)	15.7 µM (inactive)	38.5 µM (inactive)	41.3 µM (inactive)	> 100 µM (inactive)	30.8 µM (inactive)	20.7 µM (inactive)
CN(C)C(=O)N(CCCl)N=O		> 100 µM (inactive)	> 100 µM (inactive)	> 100 µM (inactive)	> 100 µM (inactive)	> 100 µM (inactive)	> 100 µM (inactive)	> 100 µM (inactive)	> 100 µM (inactive)	> 100 µM (inactive)	> 100 µM (inactive)	> 100 µM (inactive)	> 100 µM (inactive)	> 100 µM (inactive)	> 100 µM (inactive)	> 100 µM (inactive)	> 63.7 µM (inactive)	> 100 µM (inactive)	> 100 µM (inactive)
CCCCc1nccc2c(C)c3[nH]c4ccccc4c3cc12		2.85 µM (inactive)	0.92 µM (active)	3.74 µM (inactive)	1.5 µM (inactive)	6.04 µM (inactive)	2.17 µM (inactive)	1.91 µM (inactive)	2.79 µM (inactive)	2 µM (inactive)	5.87 µM (inactive)	2.68 µM (inactive)	3.88 µM (inactive)	2.24 µM (inactive)	6.98 µM (inactive)	5 µM (inactive)	5.93 µM (inactive)	2.42 µM (inactive)	1.77 µM (inactive)
CC(C)OP(=O)(OC(C)C)/C(=N/Nc1ccc([N+](=O)[O-])cc1)NN	98.6 µM (inactive)	> 100 µM (inactive)	> 100 µM (inactive)	65 µM (inactive)	> 100 µM (inactive)	> 100 µM (inactive)	> 100 µM (inactive)	47.8 µM (inactive)	> 100 µM (inactive)	88.3 µM (inactive)	> 100 µM (inactive)		> 100 µM (inactive)	35.7 µM (inactive)	> 100 µM (inactive)	> 100 µM (inactive)	83.2 µM (inactive)	24.9 µM (inactive)	> 100 µM (inactive)
Cc1ccc(C2C(Cl)C(=O)N2NC(=O)c2ccc(N)cc2)cc1 (centres undefined)	31.9 µM (inactive)	7.73 µM (inactive)	22.6 µM (inactive)	14.5 µM (inactive)	11.2 µM (inactive)	17.1 µM (inactive)	17.6 µM (inactive)	12 µM (inactive)	17.4 µM (inactive)	24.2 µM (inactive)		20.3 µM (inactive)	1.33 µM (inactive)	15.2 µM (inactive)	22.7 µM (inactive)	18.4 µM (inactive)	47.6 µM (inactive)	24.3 µM (inactive)	15 µM (inactive)
